{
  "source": "ChEMBL document CHEMBL1132848",
  "about": "“1H-pyrazole-1-carboxamidines: new inhibitors of nitric oxide synthase” (Bioorg Med Chem Lett, 2000)",
  "key": {"Nitric oxide synthase 3": {"molecular_target": "T1, Nitric oxide synthase 3 (Bos taurus, UniProt P29473)", "T1 sequence (P29473 whole entry)": "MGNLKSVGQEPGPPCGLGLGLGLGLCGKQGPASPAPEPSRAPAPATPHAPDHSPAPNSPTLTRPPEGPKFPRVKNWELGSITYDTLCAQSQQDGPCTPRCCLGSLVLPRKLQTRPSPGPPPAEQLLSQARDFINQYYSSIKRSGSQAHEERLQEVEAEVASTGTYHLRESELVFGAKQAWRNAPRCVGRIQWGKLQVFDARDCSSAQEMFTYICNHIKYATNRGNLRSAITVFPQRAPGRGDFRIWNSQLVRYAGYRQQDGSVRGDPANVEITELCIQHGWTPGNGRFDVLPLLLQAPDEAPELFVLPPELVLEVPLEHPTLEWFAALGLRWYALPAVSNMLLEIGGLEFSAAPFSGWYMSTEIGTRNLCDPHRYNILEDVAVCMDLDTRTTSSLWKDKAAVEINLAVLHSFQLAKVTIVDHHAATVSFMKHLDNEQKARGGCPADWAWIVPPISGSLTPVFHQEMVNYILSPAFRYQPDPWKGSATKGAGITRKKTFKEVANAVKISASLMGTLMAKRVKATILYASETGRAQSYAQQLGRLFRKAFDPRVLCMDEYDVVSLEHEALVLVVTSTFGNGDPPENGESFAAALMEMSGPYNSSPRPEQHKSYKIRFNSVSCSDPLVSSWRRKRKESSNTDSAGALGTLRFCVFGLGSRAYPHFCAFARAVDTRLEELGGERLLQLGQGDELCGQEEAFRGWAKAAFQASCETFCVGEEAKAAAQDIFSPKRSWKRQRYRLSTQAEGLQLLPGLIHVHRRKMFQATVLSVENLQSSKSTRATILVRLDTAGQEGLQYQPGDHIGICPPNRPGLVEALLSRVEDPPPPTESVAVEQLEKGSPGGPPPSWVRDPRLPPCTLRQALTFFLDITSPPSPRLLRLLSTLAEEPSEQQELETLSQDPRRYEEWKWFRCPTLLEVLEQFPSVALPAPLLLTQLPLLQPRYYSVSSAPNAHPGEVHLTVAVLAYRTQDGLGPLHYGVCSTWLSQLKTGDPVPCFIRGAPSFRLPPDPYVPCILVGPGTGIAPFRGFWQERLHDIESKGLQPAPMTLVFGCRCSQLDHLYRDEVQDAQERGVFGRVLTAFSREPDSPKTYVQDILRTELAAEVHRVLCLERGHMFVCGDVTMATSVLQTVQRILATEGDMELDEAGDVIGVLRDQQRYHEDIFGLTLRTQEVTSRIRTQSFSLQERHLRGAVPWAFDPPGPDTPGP", "assay": "Inhibition against endothelial Nitric Oxide Synthase(eNOS)"}, "[1]": {"molecular_target": "T2, Nitric oxide synthase, inducible (Mus musculus, UniProt P29477)", "T2 sequence (P29477 whole entry)": "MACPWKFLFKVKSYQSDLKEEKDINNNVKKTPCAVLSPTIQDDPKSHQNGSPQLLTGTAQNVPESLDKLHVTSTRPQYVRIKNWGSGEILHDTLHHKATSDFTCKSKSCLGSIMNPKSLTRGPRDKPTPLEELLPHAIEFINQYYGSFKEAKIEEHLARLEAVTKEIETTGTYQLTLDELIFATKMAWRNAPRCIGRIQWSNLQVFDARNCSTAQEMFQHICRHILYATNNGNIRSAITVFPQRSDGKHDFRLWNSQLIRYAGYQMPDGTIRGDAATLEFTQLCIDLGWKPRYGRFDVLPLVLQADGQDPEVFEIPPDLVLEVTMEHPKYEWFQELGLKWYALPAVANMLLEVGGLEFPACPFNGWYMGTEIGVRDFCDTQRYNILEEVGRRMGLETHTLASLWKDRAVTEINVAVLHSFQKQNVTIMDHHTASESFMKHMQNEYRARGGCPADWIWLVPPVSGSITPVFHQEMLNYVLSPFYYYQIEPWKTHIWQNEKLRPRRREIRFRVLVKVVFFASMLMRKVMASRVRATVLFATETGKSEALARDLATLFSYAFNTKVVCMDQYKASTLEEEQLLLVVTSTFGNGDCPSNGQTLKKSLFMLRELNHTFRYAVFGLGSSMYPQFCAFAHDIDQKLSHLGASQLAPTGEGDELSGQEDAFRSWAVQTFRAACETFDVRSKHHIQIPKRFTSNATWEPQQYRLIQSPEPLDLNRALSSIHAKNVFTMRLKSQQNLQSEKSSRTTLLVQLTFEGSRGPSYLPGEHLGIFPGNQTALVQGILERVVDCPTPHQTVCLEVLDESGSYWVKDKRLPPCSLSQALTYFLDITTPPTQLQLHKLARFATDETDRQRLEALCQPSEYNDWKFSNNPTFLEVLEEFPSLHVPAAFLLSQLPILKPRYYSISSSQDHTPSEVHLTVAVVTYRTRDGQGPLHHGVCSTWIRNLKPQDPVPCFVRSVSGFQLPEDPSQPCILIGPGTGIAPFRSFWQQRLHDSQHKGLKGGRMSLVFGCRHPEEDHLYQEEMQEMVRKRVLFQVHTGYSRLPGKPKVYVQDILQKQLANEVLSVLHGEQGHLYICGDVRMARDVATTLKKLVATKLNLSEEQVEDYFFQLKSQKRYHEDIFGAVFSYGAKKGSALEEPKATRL", "assay": "Inhibition against induced Nitric Oxide Synthase(iNOS)"}, "Nitric oxide synthase 1 [2]": {"molecular_target": "T3, Nitric oxide synthase 1 (Rattus norvegicus, UniProt P29476)", "T3 sequence (P29476 whole entry)": "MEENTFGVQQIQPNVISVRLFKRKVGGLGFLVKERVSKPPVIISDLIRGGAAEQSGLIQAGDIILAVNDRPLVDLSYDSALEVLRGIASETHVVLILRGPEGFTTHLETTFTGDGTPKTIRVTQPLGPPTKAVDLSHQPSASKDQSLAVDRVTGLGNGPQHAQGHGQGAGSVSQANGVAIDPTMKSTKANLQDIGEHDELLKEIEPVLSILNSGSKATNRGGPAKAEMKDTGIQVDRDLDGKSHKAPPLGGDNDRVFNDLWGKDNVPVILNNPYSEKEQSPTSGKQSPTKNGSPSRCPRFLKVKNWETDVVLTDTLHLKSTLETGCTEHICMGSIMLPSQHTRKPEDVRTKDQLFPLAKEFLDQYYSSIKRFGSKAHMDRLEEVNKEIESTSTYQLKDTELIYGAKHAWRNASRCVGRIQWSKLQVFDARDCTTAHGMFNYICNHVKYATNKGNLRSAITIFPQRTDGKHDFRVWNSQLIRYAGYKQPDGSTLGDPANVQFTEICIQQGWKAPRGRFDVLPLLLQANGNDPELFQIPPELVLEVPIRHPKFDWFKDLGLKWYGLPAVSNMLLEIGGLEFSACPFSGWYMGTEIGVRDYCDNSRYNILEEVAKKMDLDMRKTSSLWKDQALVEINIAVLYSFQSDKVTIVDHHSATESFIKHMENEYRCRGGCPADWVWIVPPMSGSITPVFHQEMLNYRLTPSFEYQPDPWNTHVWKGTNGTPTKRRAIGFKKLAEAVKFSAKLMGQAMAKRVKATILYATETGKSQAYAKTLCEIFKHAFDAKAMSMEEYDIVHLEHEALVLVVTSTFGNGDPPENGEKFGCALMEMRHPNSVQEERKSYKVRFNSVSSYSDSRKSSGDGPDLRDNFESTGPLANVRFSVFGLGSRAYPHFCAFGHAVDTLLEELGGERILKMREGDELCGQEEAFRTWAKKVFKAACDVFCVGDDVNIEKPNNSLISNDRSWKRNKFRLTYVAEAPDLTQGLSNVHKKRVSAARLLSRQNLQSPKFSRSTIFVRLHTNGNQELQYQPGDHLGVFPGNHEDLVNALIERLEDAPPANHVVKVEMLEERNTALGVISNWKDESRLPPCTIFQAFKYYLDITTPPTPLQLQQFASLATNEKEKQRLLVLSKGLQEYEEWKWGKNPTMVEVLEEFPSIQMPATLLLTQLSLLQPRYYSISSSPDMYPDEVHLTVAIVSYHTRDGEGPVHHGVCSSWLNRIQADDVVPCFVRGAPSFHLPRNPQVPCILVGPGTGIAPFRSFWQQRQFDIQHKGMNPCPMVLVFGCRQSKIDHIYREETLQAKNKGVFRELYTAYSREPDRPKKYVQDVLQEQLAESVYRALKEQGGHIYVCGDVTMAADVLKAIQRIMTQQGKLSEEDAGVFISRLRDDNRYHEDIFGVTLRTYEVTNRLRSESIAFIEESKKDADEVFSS", "assay": "Inhibition against neuronal Nitric Oxide Synthase(nNOS)"}, "Nitric oxide synthase 1 [3]": {"molecular_target": "T3, Nitric oxide synthase 1", "assay": "(§1) Time dependent inhibition against neuronal Nitric Oxide Synthase(nNOS)"}, "[4]": {"molecular_target": "Nitric oxide synthase 1 (Rattus norvegicus) (UniProt P29476)", "sequence (P29476 whole entry)": "as above", "assay": "as §1"}, "[5]": {"assay": "Selectivity for neuronal (nNOS) and endothelial Nitric Oxide Synthase(eNOS)", "design": "reference not given here"}, "[6]": {"assay": "Selectivity for neuronal(nNOS) and induced Nitric Oxide Synthase(iNOS)", "design": "reference not given here"}},
  "data": [
    {"smiles": "CCC/N=C(\\N)n1cccn1", "values": [
      {"measurement": "Ki", "setting": "Nitric oxide synthase 3", "value": 9, "unit": "µM"},
      {"measurement": "Ki", "setting": "[1]", "value": 5, "unit": "µM"},
      {"measurement": "Ki", "setting": "Nitric oxide synthase 1 [2]", "value": 3, "unit": "µM"},
      {"measurement": "Ki", "setting": "Nitric oxide synthase 1 [3]", "value": 33, "unit": "µM"},
      {"measurement": "K inact", "setting": "[4]", "value": 0.024, "unit": "min⁻¹"},
      {"measurement": "Ratio", "setting": "[5]", "value": 3},
      {"measurement": "Ratio", "setting": "[6]", "value": 1.7}
    ]},
    {"smiles": "N=C(Nc1cccc(CN)c1)c1cccs1", "values": [
      {"measurement": "Ki", "setting": "Nitric oxide synthase 3", "value": 0.46, "unit": "µM"},
      {"measurement": "Ki", "setting": "[1]", "value": 0.12, "unit": "µM"}
    ]},
    {"smiles": "Cc1cnn(C(=N)N)c1", "values": [
      {"measurement": "Ki", "setting": "Nitric oxide synthase 3", "value": 190, "unit": "µM"},
      {"measurement": "Ki", "setting": "[1]", "value": 3, "unit": "µM"},
      {"measurement": "Ki", "setting": "Nitric oxide synthase 1 [2]", "value": 12, "unit": "µM"},
      {"measurement": "Ratio", "setting": "[5]", "value": 16},
      {"measurement": "Ratio", "setting": "[6]", "value": 0.3}
    ]},
    {"smiles": "N=C(NC1CC1)n1cccn1", "values": [
      {"measurement": "Ki", "setting": "Nitric oxide synthase 3", "value": 120, "unit": "µM"},
      {"measurement": "Ki", "setting": "[1]", "value": 80, "unit": "µM"},
      {"measurement": "Ki", "setting": "Nitric oxide synthase 1 [2]", "value": 50, "unit": "µM"},
      {"measurement": "Ratio", "setting": "[5]", "value": 2.4},
      {"measurement": "Ratio", "setting": "[6]", "value": 1.6}
    ]},
    {"smiles": "N=C(N)n1cccn1", "values": [
      {"measurement": "Ki", "setting": "Nitric oxide synthase 3", "value": 0.5, "unit": "µM"},
      {"measurement": "Ki", "setting": "[1]", "value": 0.7, "unit": "µM"},
      {"measurement": "Ki", "setting": "Nitric oxide synthase 1 [2]", "value": 0.4, "unit": "µM"},
      {"measurement": "Ratio", "setting": "[5]", "value": 1.3},
      {"measurement": "Ratio", "setting": "[6]", "value": 1.8}
    ]},
    {"smiles": "Cc1cc(C)n(C(=N)N)n1", "values": [
      {"measurement": "Ki", "setting": "Nitric oxide synthase 3", "value": 1500, "unit": "µM"},
      {"measurement": "Ki", "setting": "[1]", "value": 750, "unit": "µM"},
      {"measurement": "Ki", "setting": "Nitric oxide synthase 1 [2]", "value": 350, "unit": "µM"},
      {"measurement": "Ratio", "setting": "[5]", "value": 4.3},
      {"measurement": "Ratio", "setting": "[6]", "value": 2.1}
    ]},
    {"smiles": "N=C(Nc1cccc(CN)c1)c1ccco1", "values": [
      {"measurement": "Ki", "setting": "[1]", "value": 0.16, "unit": "µM"}
    ]},
    {"smiles": "Cc1ccn(C(=N)N)n1", "values": [
      {"measurement": "Ki", "setting": "Nitric oxide synthase 3", "value": 100, "unit": "µM"},
      {"measurement": "Ki", "setting": "[1]", "value": 9, "unit": "µM"},
      {"measurement": "Ki", "setting": "Nitric oxide synthase 1 [2]", "value": 8, "unit": "µM"},
      {"measurement": "Ratio", "setting": "[5]", "value": 13},
      {"measurement": "Ratio", "setting": "[6]", "value": 1.1}
    ]},
    {"smiles": "CCCCC/N=C(\\N)n1cccn1", "values": [
      {"measurement": "Ki", "setting": "Nitric oxide synthase 3", "value": 700, "unit": "µM"},
      {"measurement": "Ki", "setting": "[1]", "value": 50, "unit": "µM"},
      {"measurement": "Ki", "setting": "Nitric oxide synthase 1 [2]", "value": 60, "unit": "µM"},
      {"measurement": "Ratio", "setting": "[5]", "value": 14},
      {"measurement": "Ratio", "setting": "[6]", "value": 0.8}
    ]},
    {"smiles": "CCCC/N=C(\\N)NCCC", "values": [
      {"measurement": "Ki", "setting": "Nitric oxide synthase 3", "value": 650, "unit": "µM"},
      {"measurement": "Ki", "setting": "[1]", "value": 780, "unit": "µM"},
      {"measurement": "Ki", "setting": "Nitric oxide synthase 1 [2]", "value": 700, "unit": "µM"},
      {"measurement": "Ratio", "setting": "[5]", "value": 0.9},
      {"measurement": "Ratio", "setting": "[6]", "value": 1.1}
    ]},
    {"smiles": "N=C(Nc1cccc(CN)c1)n1cccn1", "values": [
      {"measurement": "Ki", "setting": "Nitric oxide synthase 3", "value": 200, "unit": "µM"},
      {"measurement": "Ki", "setting": "[1]", "value": 12, "unit": "µM"},
      {"measurement": "Ki", "setting": "Nitric oxide synthase 1 [2]", "value": 2, "unit": "µM"},
      {"measurement": "Ratio", "setting": "[5]", "value": 100},
      {"measurement": "Ratio", "setting": "[6]", "value": 6}
    ]},
    {"smiles": "N=C(NCC1CC1)n1cccn1", "values": [
      {"measurement": "Ki", "setting": "Nitric oxide synthase 3", "value": 80, "unit": "µM"},
      {"measurement": "Ki", "setting": "[1]", "value": 22, "unit": "µM"},
      {"measurement": "Ki", "setting": "Nitric oxide synthase 1 [2]", "value": 10, "unit": "µM"},
      {"measurement": "Ratio", "setting": "[5]", "value": 8},
      {"measurement": "Ratio", "setting": "[6]", "value": 2.2}
    ]},
    {"smiles": "CC(C)C/N=C(\\N)n1cccn1", "values": [
      {"measurement": "Ki", "setting": "Nitric oxide synthase 3", "value": 180, "unit": "µM"},
      {"measurement": "Ki", "setting": "[1]", "value": 150, "unit": "µM"},
      {"measurement": "Ki", "setting": "Nitric oxide synthase 1 [2]", "value": 45, "unit": "µM"},
      {"measurement": "Ratio", "setting": "[5]", "value": 4},
      {"measurement": "Ratio", "setting": "[6]", "value": 3.3}
    ]},
    {"smiles": "CCCC/N=C(\\N)n1cccn1", "values": [
      {"measurement": "Ki", "setting": "Nitric oxide synthase 3", "value": 25, "unit": "µM"},
      {"measurement": "Ki", "setting": "[1]", "value": 14, "unit": "µM"},
      {"measurement": "Ki", "setting": "Nitric oxide synthase 1 [2]", "value": 14, "unit": "µM"},
      {"measurement": "Ratio", "setting": "[5]", "value": 1.8},
      {"measurement": "Ratio", "setting": "[6]", "value": 1}
    ]},
    {"smiles": "NCCCC/N=C(\\N)n1cccn1", "values": [
      {"measurement": "Ki", "setting": "Nitric oxide synthase 3", "value": 460, "unit": "µM"},
      {"measurement": "Ki", "setting": "[1]", "value": 50, "unit": "µM"},
      {"measurement": "Ki", "setting": "Nitric oxide synthase 1 [2]", "value": 6, "unit": "µM"},
      {"measurement": "Ratio", "setting": "[5]", "value": 77},
      {"measurement": "Ratio", "setting": "[6]", "value": 8.3}
    ]}
  ]
}
